SMILES strings stand for the structures.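 Five compound concentrations were applied to cells in 96-well plates for 48 hours; endpoints were derived by simple linear interpolation of the resulting dose-response curve. Abbreviation: GI50, concentration required for 50% inhibition of growth.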 Calls of active or inactive are those of the source. Cut-off read from the data, not from the text of the source: active = GI50 up to about 1.1 µM and inactive = higher.

Common to all, as to experiment: growth of human tumour cells (NCI), 48 h
Test [1] deals with COLO 205.
The test system of test [2] is NCI-H226.
Test [3] relates to EKVX.
The subject of test [4] is MDA-N.
The test system of test [5] is NCI/ADR-RES.
In test [6] the test system is OVCAR-8.
The subject of test [7] is A498.
The test system of test [8] is M14.
Test [9] has as its system 786-0.
The test system of test [10] is OVCAR-5.
Test [11] relates to SN12C.
For test [12], the system named is HT-29.
The subject of test [13] is Malme-3M.
Test [14] deals with MDA-MB-435.
The subject of test [15] is SNB-19.
The test system of test [16] is SF-295.
In test [17] the test system is HOP-92.
In test [18] the test system is TK-10.
Test [19] relates to NCI-H460.

`O=C(CN1CCOCC1)c1ccc2c(c1)oc(=O)n2CCN1CCOCC1`: the GI50 in test [1], in [2], in test [3], in test [4], in test [5] and in test [6] was > 100 µM (inactive) in each case. Further, the GI50 in test [7], in test [8], in test [9], in test [10], in test [11] and in test [12] was > 100 µM (inactive) in each case. For the same compound, the GI50 in test [13], in test [14], in [15] and in test [16] was > 100 µM (inactive) each time.

Take `C=CCc1cccc2cc(C(=O)Nc3nc(C45CC6CC(CC(C6)C4)C5)cs3)c(=O)oc12`: the GI50 is 21.4 µM (inactive) in test [1]; 29.1 µM (inactive) in test [2]; 25.1 µM (inactive) in test [3]; 45 µM (inactive) in [4]; 27.2 µM (inactive) in [5]; 85.9 µM (inactive) in test [6]. In addition, the GI50 is 25.2 µM (inactive) in [7]; 23.2 µM (inactive) in test [9]; > 100 µM (inactive) in test [10]; 45.2 µM (inactive) in test [11]; 49.8 µM (inactive) in test [12]; 16 µM (inactive) in test [17]. The GI50 in test [13] was 46 µM (inactive); in [14] it was 51.5 µM (inactive); in test [15] it was 26.1 µM (inactive); in test [18], 30.8 µM (inactive); in test [19], 29.9 µM (inactive); in test [16], 16.3 µM (inactive).

With `C=CCSc1ncnc2c1ncn2C1OC(CO)C(O)C1O` (centres undefined), the GI50 in [1] is 41.2 µM (inactive); in [2], > 100 µM (inactive); in test [3], > 100 µM (inactive); in test [6], 3.85 µM (inactive); in [7], 58.2 µM (inactive); in test [8], 33 µM (inactive). The GI50 in test [9] was 79.4 µM (inactive); in test [10] it was 60.5 µM (inactive); in test [11] it was 6.31 µM (inactive); in [12], 32.6 µM (inactive); in test [17], 9.2 µM (inactive); in test [13], > 100 µM (inactive). The GI50 in test [15] was > 100 µM (inactive); in test [18] it was 68.7 µM (inactive); in test [19] it was 38.9 µM (inactive); in test [16], 87.5 µM (inactive).

As for `COCCN(C(=O)c1ccccc1)C1CCC2(SCCS2)c2[nH]c3ccccc3c21` (centres undefined), the GI50 in test [1] was 37.7 µM (inactive); in test [2], > 100 µM (inactive); in test [3] it was 30.3 µM (inactive); in [5], 30.2 µM (inactive); in [6] it was 25.6 µM (inactive); in [7] it was 45.7 µM (inactive). Also, the GI50 in test [9] was 60.8 µM (inactive); in [10], > 100 µM (inactive); in test [11], 40.2 µM (inactive); in test [12] it was 49.4 µM (inactive); in test [17], 20.1 µM (inactive); in [13] it was 36.2 µM (inactive). Besides, the GI50 is 20.4 µM (inactive) in [14]; 89.5 µM (inactive) in [15]; 79.1 µM (inactive) in test [18]; 29.6 µM (inactive) in test [19]; 42.7 µM (inactive) in test [16].

Regarding `N#Cc1nc(-c2cnccn2)oc1N`, the GI50 in test [3], in test [4], in test [6], in [7], in test [8] and in [9] was > 100 µM (inactive) in each case. Also, the GI50 in test [10], in test [11], in test [12], in [17], in test [14] and in [15] was > 100 µM (inactive) throughout. In addition, the GI50 in test [18] was > 100 µM (inactive).

Regarding `COc1ccc(-c2nc3ncccn3c2-c2ccc(SC)cc2)cc1`, the GI50 was 1.33 µM (inactive) in test [1]; 0.237 µM (active) in [4]; 1.46 µM (inactive) in [5]; 3.92 µM (inactive) in test [6]; 1.48 µM (inactive) in [8]; 4.59 µM (inactive) in [9]. For the same compound, the GI50 is 2.42 µM (inactive) in test [10]; 3.92 µM (inactive) in [11]; 3.09 µM (inactive) in [12]; 7.18 µM (inactive) in test [17]; 0.213 µM (active) in test [14]; 1.19 µM (inactive) in [15]. For the same compound, the GI50 in test [19] was 2.18 µM (inactive); in test [16], 0.989 µM (active).

Take `O=C(CNc1ccccn1)Nn1cnc2ccc(S(=O)(=O)Nc3ccccn3)cc2c1=O`: the GI50 in [1], in test [2], in test [3], in test [4], in test [5] and in [6] was > 100 µM (inactive) in each case. The GI50 in test [8], in test [9], in test [10], in [11], in test [12] and in test [17] was > 100 µM (inactive) throughout. Also, the GI50 in test [13], in test [14], in [15], in test [18], in test [19] and in [16] was > 100 µM (inactive) throughout.

Take `CC1(C)C(=O)C(O)=CC2C1=CCC1C2(C)C(=O)CC2(C)C(C(C)(O)C(=O)CC(O)C(C)(C)O)C(O)CC12C` (centres undefined): the GI50 in test [1] was 3.67 µM (inactive); in test [2], 2.86 µM (inactive); in [3], 10 µM (inactive); in test [6] it was 12.6 µM (inactive); in test [7], 2 µM (inactive); in test [8], 3.54 µM (inactive). For the same compound, the GI50 in [9] is 2.45 µM (inactive); in [10], 25.2 µM (inactive); in test [11], 4.98 µM (inactive); in [12] it was 3.35 µM (inactive); in test [17], 2.38 µM (inactive); in test [13], 3.54 µM (inactive). Moreover, the GI50 in test [15] is 3.13 µM (inactive); in [18], 2.54 µM (inactive); in test [19], 3.39 µM (inactive); in [16], 4.67 µM (inactive).

For `O=C1C(/C=C/c2ccc(Cl)cc2)=NNC2N1N=C1NC(=O)C3(NN12)c1ccccc1-c1ccccc13` (centres undefined), the GI50 in test [1] is > 100 µM (inactive); in [2] it was > 100 µM (inactive); in test [3], 38.5 µM (inactive); in test [5] it was > 100 µM (inactive); in test [6], > 100 µM (inactive); in test [7] it was > 100 µM (inactive). The GI50 in [8] is > 100 µM (inactive); in [9], > 100 µM (inactive); in [10], > 100 µM (inactive); in [11], > 100 µM (inactive); in test [12] it was 66.2 µM (inactive); in test [17] it was 41.9 µM (inactive). Further, the GI50 in test [13] is > 100 µM (inactive); in [14], 60.8 µM (inactive); in test [15], > 100 µM (inactive); in [18], > 100 µM (inactive); in [19], > 100 µM (inactive); in test [16], > 100 µM (inactive).

As for `Cc1c(C(=O)/C=C/C=C/c2ccccc2)[n+]([O-])c2ccccc2[n+]1[O-]`, the GI50 is 35 µM (inactive) in test [1]; 64.3 µM (inactive) in [2]; 51.2 µM (inactive) in [3]; 42.8 µM (inactive) in test [6]; 51.8 µM (inactive) in test [7]; 19.8 µM (inactive) in test [8]. Moreover, the GI50 in test [9] is 21.9 µM (inactive); in test [10], 66.1 µM (inactive); in test [11] it was 23.5 µM (inactive); in test [12], > 10 µM (inactive); in test [17] it was 18 µM (inactive); in [13], 28.9 µM (inactive). The GI50 in [15] is 35.5 µM (inactive); in [18], 50.8 µM (inactive); in test [19], 18.8 µM (inactive); in [16] it was 29.2 µM (inactive).

On to `C=C(CN(CC(=C)C(=O)c1ccccc1)C(C)(C)C)C(=O)c1ccccc1`, for which the GI50 in test [1] was 2.65 µM (inactive); in [2] it was 24 µM (inactive); in [3], 18.9 µM (inactive); in test [6] it was 20.5 µM (inactive); in test [7], 18.3 µM (inactive); in test [8], 10.5 µM (inactive). The GI50 in test [9] was 11.3 µM (inactive); in test [10] it was 19.6 µM (inactive); in test [11] it was 16.3 µM (inactive); in test [12] it was 18.1 µM (inactive); in test [17], 5.62 µM (inactive); in test [13], 15.3 µM (inactive). The GI50 is 23.3 µM (inactive) in test [15], 13.8 µM (inactive) in [18], 20.6 µM (inactive) in test [19] and 28.3 µM (inactive) in test [16].

Consider `C/C=C1\Oc2ccc(OC)cc2S1(=O)=O`, for which the GI50 in test [1], in test [2], in [3], in test [6], in [7] and in test [8] was > 100 µM (inactive) in each case. Further, the GI50 in test [9], in test [10], in test [11], in test [12], in test [17] and in test [13] was > 100 µM (inactive) throughout. The GI50 in test [15], in [18], in test [19] and in test [16] was > 100 µM (inactive) in each case.

The values above are taken from ChEMBL document CHEMBL1201862, “PubChem BioAssay data set” (2004).
